Laboratory results: US12214008B2, “Protein interfaces” (SyntheX, Inc., priority 2016, dated 2025)

Experiments:
SSP-25 cells = experiment: xCELLigence cell death assay; assay type: cell-based; conditions: 10 μM compound 10 alone
Protocol: Further, singly-dosed cells continued to recover, which indicated reduced general cytotoxicity of the compound in the media or the lysed cells.
(§1) To optimize cellular activity, compounds were tested in xCELLigence cell death assays against various cell lines. An example of the workflow used is shown using A549 cells and compound 10 in FIGS. 15 and 16. […] Data from xCELLigence traces at different compound concentrations from FIG. 15 was then used to generate a dose-response curve, which was then subjected to nonlinear regression using a sigmoidal dose-response model to generate IC50s and R2 values for cell death for each compound/cell line combination (FIG. 16).
To further investigate the hypothesis that peptide binding to RAD51 in cells causes cell death via increases in intracellular free calcium levels, compound 10 alone and in combination with two different intracellular calcium chelators (1,2-Bis(2-aminophenoxy) ethane-N,N,N′,N′-tetraacetic acid tetrakis(acetoxymethyl ester) aka “BAPTA-AM”, and ammoniated ruthenium oxychloride aka “ruthenium red”) was tested in an xCELLigence™ cell death assay as in Example 3. The intracellular calcium chelators alone were also evaluated on the cells.

A549 cells = experiment: xCELLigence cell death assay; assay type: cell-based; conditions: FIG. 15
Protocol: as §1

A549 xenograft = experiment: athymic mouse A549 xenograft model; assay type: in vivo, mice
Protocol: Female athymic nu/nu mice (6-8 weeks old) were purchased from Simonsen labs (n=12) and were housed at the Murigenics vivarium in Vallejo. The mice were acclimated to the setting of the vivarium for 5 days and maintained on a standard chow diet; 12:12 dark/light cycle; and group housed (3 mice per cage) in hepa-filtered cages. After acclimation, each mouse was injected subcutaneously (lower left abdominal flank) with 5×10^6 A549 (ATCC: CCL-185) cells mixed with 1:1 (v/v) with Matrigel solution. When the tumors reached a volume of ˜100 mm3, the mice were divided into separate treatment groups for the desired treatments. Experiments using both intra-tumoral (IT) and intraperitoneal (IP) administration were performed and the data are reported in FIG. 19.
Mice prepared as described above were divided into 4 groups: • Group 1: were not treated with anything (n=3) • Group 2: received an intra-tumoral injection of 50 microliters of Phosphate Buffered Saline (mock) (n=3) • Group 3: received an intra-tumoral injection of 50 microliters of 10 mg/ml compound 10 in Phosphate Buffered Saline (n=3) • Group 4: received an intra-tumoral injection of 50 microliters of 20 mg/ml compound 10 in Phosphate Buffered Saline (n=3)
The 50 microliter injections were carried out with a (30 g needle). The injections were administered on day zero and then again on day 3. The length (L) and the width (W) of the tumor mass was measured with a Vernier caliper and the tumor volume (V) was calculated as V=(L×W^2)/2. The relative tumor volume of each tumor mass on each measurement day was normalized against the initial volume of the same mass on day zero right before initiation of injections. […]
The injections were carried out with a 30 g needle. […] The length (L) and the width (W) of the tumor mass was measured with a Vernier caliper and the tumor volume (V) was calculated as V=(L×W^2)/2. […]

RAD51 = target: T1, RAD51 (Homo sapiens, UniProt Q06609); experiment: microscale thermophoresis; assay type: binding
T1 sequence (Q06609 1-339): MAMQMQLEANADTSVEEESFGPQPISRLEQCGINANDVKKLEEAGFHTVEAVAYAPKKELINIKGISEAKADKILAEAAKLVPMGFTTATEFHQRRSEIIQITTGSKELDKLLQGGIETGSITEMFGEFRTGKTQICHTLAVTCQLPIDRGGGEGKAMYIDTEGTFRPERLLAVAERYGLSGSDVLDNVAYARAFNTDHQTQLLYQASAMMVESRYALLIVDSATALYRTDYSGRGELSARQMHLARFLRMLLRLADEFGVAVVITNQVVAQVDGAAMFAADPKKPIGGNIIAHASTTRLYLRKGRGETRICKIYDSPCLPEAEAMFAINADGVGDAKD
Protocol: To test the interaction between calcium binding and peptide binding to RAD51, the Kds of active (Compound 5, 10) peptides for RAD51 were tested by a microscale thermophoresis assay, and the Kd of compound 5 was additionally performed in the presence of 1 mM calcium.
Microscale thermophoresis was performed as previously described (see, for e.g. Jerabek-Willemsen, M., Wienken, C. J., Braun, D., Baaske, P. & Duhr, S. Molecular interaction studies using microscale thermophoresis. Assay Drug Dev. Technol. 9, 342-353 (2011)). The affinity of the Compound was measured using the Monolith NT.115 from Nanotemper Technologies. Rad51 was fluorescently labelled according to the manufacturer's protocol and the labelled protein used for each assay was about 500 nM. A solution of unlabelled peptide was diluted for appropriate serial concentration gradient. The samples were loaded into silica capillaries (Polymicro Technologies). Measurements were performed at room temperature in buffer containing PBS, 0.1% Tween 20, 0.5 mM ATP, 2.5 uM ssDNA, with 1 mM CaCl2 (when mentioned). Measurements were done using 12% LED power and 60% MST power. The assays were repeated three times for each affinity measurement. Data analyses were performed using Nanotemper Analysis software and OriginPro 8.0 software provided by the manufacturer.

Kd (RAD51; PBS): 8.55 nM
Kd (RAD51; without added calcium): ~8 nM
SMILES: CSCC[C@@H](NC(=O)[C@@H](CC(C)C)NC(C)=O)C(=O)N[C@H](CCCNC(=N)N)C(=O)N[C@H](CO)C(=O)N[C@@H](C(=O)N[C@H](CCCNC(=N)N)C(=O)N[C@H](CC(C)C)C(=O)N[C@H](CCCNC(=N)N)C(=O)N[C@@H](C(=O)NCC(=O)N[C@H](CC(C)C)C(=O)N[C@H](CCCNC(=N)N)C(=O)N[C@H](CCCCN)C(=O)N[C@H](CCCNC(=N)N)C(=O)N[C@H](CCCNC(=N)N)C(=O)N[C@H](CCCNC(=N)N)C(=O)N[C@H](CCCNC(=N)N)C(=O)N[C@H](CCCNC(=N)N)C(=O)N[C@H](CCCNC(=N)N)C(=O)N[C@H](CCCNC(=N)N)C(N)=O)C(C)C)C(C)C [Compound 10, Ac-lmrsvrlrvGlrkrrrrrrr-NH2]
cell death of SSP-25 cells, compound alone (SSP-25 cells): significant cell death
cell killing of A549 cells (cell index) (A549 cells): cell killing of A549 cells
relative tumor volume, intra-tumoral dosing (A549 xenograft; 50 microliters of 10 or 20 mg/ml intra-tumoral on day 0 and day 3, measured days 0, 3, 6): measurable decreases in tumor size as early as day 3
relative tumor volume, intra-peritoneal dosing (A549 xenograft; 125 microliters of 3 mg/ml intra-peritoneal on day 7, measured days 0-10): measurable decreases in tumor size as early as 3 days after injection (day 10)
tumor volume (A549 xenograft; FIG. 19, intratumoral and intraperitoneal): significant effects on tumor volume after only a few days of treatment
